Columns and labels:
Type in all cases: biochemical
Conditions in all cases: luminometer
[1] = molecular target: T1, TNIK (Homo sapiens, UniProt Q9UKE5); assay: TNIK inhibition, ADP-Glo Kinase Assay
T1 construct: purchased Promega V4158
Procedure: Inhibition activities on TNIK, IKKε and TBK1 were evaluated using the compounds of Examples 1 to 254.
The inhibition activities on TNIK, IKKε and TBK1 were measured by a luminometer, TNIK/IKKε/TBK1 Kinase Enzyme System (Promega, Ca# V4158; Invitrogen, PR8031B, Promega, Ca# V3991) and ADP-Glo Kinase Assay using ADP-Glo™ Kinase Analysis Kit (Promega, Ca# V9101) and a kinase reaction buffer [40 mM Tris(pH 7.5), 20 mM MgCl2, 0.1 mg/mL BSA] in accordance with the manufacturer's protocol.

[2] = molecular target: T2, TBK1 (Homo sapiens, UniProt Q9UHD2); assay: TBK1 inhibition, ADP-Glo Kinase Assay
T2 construct: purchased Promega V3991
T2 sequence (Q9UHD2 1-729): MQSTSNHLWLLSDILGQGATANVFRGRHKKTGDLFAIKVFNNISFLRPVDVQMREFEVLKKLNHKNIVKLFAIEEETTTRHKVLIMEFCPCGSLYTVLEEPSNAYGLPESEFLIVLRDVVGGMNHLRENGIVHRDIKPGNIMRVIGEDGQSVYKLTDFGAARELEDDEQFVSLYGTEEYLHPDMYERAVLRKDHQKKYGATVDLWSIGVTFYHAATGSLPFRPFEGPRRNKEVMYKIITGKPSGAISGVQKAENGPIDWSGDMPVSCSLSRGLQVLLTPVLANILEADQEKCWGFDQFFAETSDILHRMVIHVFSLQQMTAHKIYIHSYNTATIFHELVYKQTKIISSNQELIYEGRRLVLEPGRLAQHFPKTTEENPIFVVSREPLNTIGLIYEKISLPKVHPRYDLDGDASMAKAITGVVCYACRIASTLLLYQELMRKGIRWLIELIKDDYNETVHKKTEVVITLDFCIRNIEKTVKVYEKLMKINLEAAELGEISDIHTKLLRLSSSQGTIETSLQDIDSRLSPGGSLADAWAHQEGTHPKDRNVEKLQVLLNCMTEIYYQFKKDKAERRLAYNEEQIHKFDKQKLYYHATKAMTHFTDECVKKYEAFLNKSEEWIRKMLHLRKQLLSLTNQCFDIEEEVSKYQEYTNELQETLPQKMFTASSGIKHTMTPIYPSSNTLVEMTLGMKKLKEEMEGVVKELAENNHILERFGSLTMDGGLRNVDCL
Method in brief: (§1)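 Each recombinant kinase enzyme system was run per the manufacturer's protocol in 40 mM Tris pH 7.5, 20 mM MgCl2 and 0.1 mg/mL BSA. Kinase activity was detected as ADP formation by ADP-Glo luminescence.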

[3] = molecular target: T3, IKKε (Homo sapiens, UniProt Q14164); assay: IKKε inhibition, ADP-Glo Kinase Assay
T3 construct: purchased Invitrogen PR8031B
T3 sequence (Q14164 1-716): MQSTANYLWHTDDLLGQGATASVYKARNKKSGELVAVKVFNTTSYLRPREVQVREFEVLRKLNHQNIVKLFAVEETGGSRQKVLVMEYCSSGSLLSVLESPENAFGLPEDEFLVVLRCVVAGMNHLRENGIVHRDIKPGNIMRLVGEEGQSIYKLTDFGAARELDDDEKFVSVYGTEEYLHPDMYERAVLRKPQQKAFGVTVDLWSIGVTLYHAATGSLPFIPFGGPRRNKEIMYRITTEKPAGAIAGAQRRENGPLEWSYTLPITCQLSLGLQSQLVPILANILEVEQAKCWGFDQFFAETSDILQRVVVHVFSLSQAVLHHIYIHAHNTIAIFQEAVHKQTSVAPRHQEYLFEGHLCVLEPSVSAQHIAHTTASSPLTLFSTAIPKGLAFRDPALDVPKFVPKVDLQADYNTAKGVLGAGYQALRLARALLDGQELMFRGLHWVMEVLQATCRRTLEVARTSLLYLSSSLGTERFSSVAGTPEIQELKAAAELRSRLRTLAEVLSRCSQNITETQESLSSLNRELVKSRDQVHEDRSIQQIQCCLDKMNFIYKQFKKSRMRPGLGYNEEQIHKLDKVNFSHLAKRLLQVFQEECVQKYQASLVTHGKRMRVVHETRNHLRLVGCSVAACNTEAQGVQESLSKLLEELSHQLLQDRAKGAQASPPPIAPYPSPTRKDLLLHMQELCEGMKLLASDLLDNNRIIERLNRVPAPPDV
Method in brief: as §1

T1 sequence (Q9UKE5 1-367 limits assumed): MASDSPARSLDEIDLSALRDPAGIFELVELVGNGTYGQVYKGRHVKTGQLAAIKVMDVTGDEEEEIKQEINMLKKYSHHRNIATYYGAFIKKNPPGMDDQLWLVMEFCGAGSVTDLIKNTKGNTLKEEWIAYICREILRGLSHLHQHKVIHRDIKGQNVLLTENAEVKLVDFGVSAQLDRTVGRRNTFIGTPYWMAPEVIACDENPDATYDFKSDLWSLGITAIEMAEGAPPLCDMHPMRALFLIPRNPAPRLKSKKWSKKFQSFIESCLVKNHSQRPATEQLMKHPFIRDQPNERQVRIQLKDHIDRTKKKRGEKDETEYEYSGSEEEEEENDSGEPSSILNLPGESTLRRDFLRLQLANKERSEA

SMILES	IC50 [1] [µM]	IC50 [2] [µM]	IC50 [3] [µM]
Cc1cnc(-c2cc3[nH]nc(NC(=O)c4ccc(NCCN5CCCCC5)cc4)c3s2)o1 [Example 224, N-(5-(5-methyloxazol-2-yl)-1H-thieno[3,2-c]pyrazol-3-yl)-4-((2-(piperidin-1-yl)ethyl)amino)benzamide]	0.085	0.12	0.32
Cc1cnc(-c2cc3[nH]nc(NC(=O)c4ccc(N5CCN(C)CC5)cc4)c3s2)o1 [Example 225, N-(5-(5-methyloxazol-2-yl)-1H-thieno[3,2-c]pyrazol-3-yl)-4-(4-methylpiperazin-1-yl)benzamide]	0.049	0.13	0.35
COC(=O)c1cc2[nH]nc(-c3ccc(N4CCOCC4)cc3)c2s1 [Example 254, methyl 3-(4-morpholinophenyl)-1H-thieno[3,2-c]pyrazole-5-carboxylate]	0.3	> 10	

Source: patent US10294207B2, “Pyrazole derivatives as TNIK, IKKϵ and TBK1 inhibitor and pharmaceutical composition comprising same” (GREEN CROSS CORPORATION, priority 2015, dated 2019)
